Experiment [1] is described as follows: Inhibition of H1N1 Influenza A endonuclease after 1 hr by fluorescence assay. Also on record: species or system Influenza A virus.
The next experiment relates to MDCK. The experiment in a line: Cytotoxicity against dog MDCK cells after 4 days by MTT assay. The format is cell-based. To be noted: Canis lupus familiaris, 96 h. (Formazan colour is commonly taken as a measure of viable cells.)
The next experiment deals with HEK293. Briefly: Cytotoxicity against HEK293 cells after 4 days by MTT assay. As to conditions: Homo sapiens, HEK293, 96 h. The format is cell-based.

From ChEMBL document CHEMBL2385059, “3-Hydroxyquinolin-2(1H)-ones As Inhibitors of Influenza A Endonuclease” (ACS Med Chem Lett, 2013) come the findings set out here.

Some results are limits rather than exact numbers.

By IC50 is commonly meant the concentration that gives 50% inhibition. Molecule `Oc1nc2ccccc2c(Br)c1O` came in with an IC50 in experiment [1] of 53 µM.

`O=c1[nH]c2cc(-c3ccc(F)cc3)ccc2c(Br)c1O` gave an IC50 in experiment [1] of 1.1 µM. Take `O=c1[nH]c2cc(-c3ccc(F)cc3)ccc2c(-c2ccccc2)c1O`: the IC50 in experiment [1] was determined as 2 µM. For `Cc1c(O)c(=O)[nH]c2cc(-c3ccc(F)cc3)ccc12`, the IC50 in experiment [1] came to 13 µM. Take `O=c1[nH]c2cccc(Br)c2cc1O`: the IC50 in the experiment with MDCK is more than 10 µM; in the experiment on HEK293, more than 10 µM; in experiment [1] it was 12 µM. With `O=c1[nH]c2ccc(Br)cc2cc1O`, the half-inhibitory concentration (IC50) in the experiment with MDCK was more than 10 µM; in the experiment with HEK293, more than 10 µM; in experiment [1], 7.4 µM. For the molecule `O=c1[nH]c2cc(Br)ccc2cc1O`, the half-inhibitory concentration (IC50) in the experiment with MDCK was more than 10 µM; with HEK293, more than 10 µM; in experiment [1], 7.6 µM.

For the molecule `O=c1[nH]c2c(Br)cccc2cc1O`, the IC50 in the experiment on MDCK was more than 10 µM; with HEK293, more than 10 µM; in experiment [1] it was 11 µM. Molecule `O=c1[nH]c2cccc(-c3ccc(F)cc3)c2cc1O` returned an IC50 in experiment [1] of 3.3 µM. Molecule `O=c1[nH]c2ccc(-c3ccc(F)cc3)cc2cc1O` had an IC50 in experiment [1] of 0.5 µM. The same measure, in the same setting: the same measure for `O=c1[nH]c2cc(-c3ccc(F)cc3)ccc2cc1O`: 0.5 µM; for `O=c1[nH]c2c(-c3ccc(F)cc3)cccc2cc1O`: 4.7 µM.

Consider `O=c1[nH]c2ccccc2c(-c2ccc(F)cc2)c1O`, for which the IC50 in experiment [1] was found to be 11 µM. As to `O=c1[nH]c2ccccc2c(-c2ccccc2)c1O`, the half-inhibitory concentration (IC50) in experiment [1] was more than 20 µM.

`Cc1c(O)c(=O)[nH]c2ccccc12`: the IC50 in experiment [1] was more than 100 µM.
